Laboratory results taken from ChEMBL document CHEMBL1148601, “Inhibition of cytosolic phospholipase A2alpha: hit to lead optimization” (J Med Chem, 2006).
Calls of active or inactive are those of the source. No cut-off for these calls is given here.

Tests used:
[1] = Inhibition of TXB2 production in Sprague-Dawley rat whole blood; assay type: functional, tissue-based
[2] = target: T1, Cytosolic phospholipase A2 (Homo sapiens, UniProt P47712); assay: Inhibition of cytosolic phospholipase A2-alpha in GLU micelle assay
T1 sequence (P47712 whole entry): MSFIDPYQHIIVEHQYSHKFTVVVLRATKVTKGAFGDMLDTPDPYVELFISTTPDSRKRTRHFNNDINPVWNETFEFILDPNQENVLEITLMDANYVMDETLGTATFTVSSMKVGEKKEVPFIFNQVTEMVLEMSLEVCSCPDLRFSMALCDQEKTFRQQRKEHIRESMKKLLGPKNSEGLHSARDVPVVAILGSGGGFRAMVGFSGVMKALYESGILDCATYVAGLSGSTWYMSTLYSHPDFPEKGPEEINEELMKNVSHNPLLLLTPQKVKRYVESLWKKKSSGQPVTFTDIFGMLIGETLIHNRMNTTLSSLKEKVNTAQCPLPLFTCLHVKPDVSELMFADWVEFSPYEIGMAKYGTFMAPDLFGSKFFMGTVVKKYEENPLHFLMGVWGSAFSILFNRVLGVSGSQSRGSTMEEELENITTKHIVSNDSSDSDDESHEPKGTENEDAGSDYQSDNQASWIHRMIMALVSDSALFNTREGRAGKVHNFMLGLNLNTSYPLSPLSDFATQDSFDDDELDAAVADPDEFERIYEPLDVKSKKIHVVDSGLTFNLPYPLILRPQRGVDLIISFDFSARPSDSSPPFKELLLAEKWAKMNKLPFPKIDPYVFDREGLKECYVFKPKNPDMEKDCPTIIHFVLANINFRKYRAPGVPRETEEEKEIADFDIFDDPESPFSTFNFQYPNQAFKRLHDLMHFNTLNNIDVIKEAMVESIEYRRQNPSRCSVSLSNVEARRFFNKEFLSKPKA

[3] = Inhibition of LTB4 production expressed in MC9 cells in presence of 4 megacells/mL; assay type: functional, cell-based; settings: Mus musculus
[4] = Inhibition of LTB4 production expressed in MC9 cells in presence of 1 megacells/mL; assay type: functional, cell-based; settings: Mus musculus
[5] = Inhibition of LTB4 production expressed in MC9 cells in presence of 8 megacells/mL; assay type: functional, cell-based; settings: Mus musculus
[6] = Inhibition of LTB4 production in human whole blood; assay type: functional, tissue-based
[7] = Inhibition of LTB4 production in MC9 cells at 0.5 uM; assay type: functional; settings: Mus musculus
[8] = Inhibition of TXB2 production in human whole blood; assay type: functional, tissue-based
[9] = Inhibition of PGF2-alpha production in MC9 cells at 0.5 uM; assay type: functional; settings: Mus musculus
[10] = Inhibition of PGF2-alpha production in the presence of exogenous arachidonic acid in MC9 cells at 0.5 uM; assay type: functional; settings: Mus musculus
[11] = Oral bioavailability in rat; assay type: ADME, organism-based; settings: in vivo
[12] = Plasma concentration in rat; assay type: ADME, organism-based
[13] = (§1) Inhibition of TXB2 production in Sprague-Dawley rat whole blood at 10 uM; assay type: functional, tissue-based
[14] = Inhibition of PGF2-alpha production in MC9 cells at 1.5 uM; assay type: functional; settings: Mus musculus
[15] = Inhibition of PGF2-alpha production in the presence of exogenous arachidonic acid in MC9 cell at 1.5 uM; assay type: functional; settings: Mus musculus
[16] = Inhibition of LTB4 production in MC9 cells at 1.5 uM; assay type: functional; settings: Mus musculus
Rattus norvegicus = species on record: Rattus norvegicus; assay: as §1; assay type: functional, tissue-based

Cc1c(CCC(=O)NCc2ccc(C(=O)O)cc2)c2cc(Cl)ccc2n1C(c1ccccc1)c1ccccc1
IC50 [1]: 50 µM | IC50 [2]: 30 µM

Cc1c(CCOc2ccc(C(=O)O)cc2)c2ccc(Cl)cc2n1C(c1ccccc1)c1ccccc1
IC50 [1]: 13 µM | IC50 [2]: 6 µM

Cc1c(CCS(=O)(=O)CCc2ccc(C(=O)O)cc2)c2cc(Cl)ccc2n1C(c1ccccc1)c1ccccc1
IC50 [1]: 14 µM | IC50 [2]: 93 µM

Cc1c(CCOc2cc(C(=O)O)on2)c2cc(Cl)ccc2n1C(c1ccccc1)c1ccccc1
IC50 [1]: > 50 µM | IC50 [2]: 40 µM

Cc1c(CC[S+]([O-])CCc2ccc(C(=O)O)cc2)c2cc(Cl)ccc2n1C(c1ccccc1)c1ccccc1 (centres undefined)
IC50 [1]: 25 µM | IC50 [2]: 18 µM

Cc1c(CCS(=O)(=O)c2ccc(C(=O)O)cc2)c2cccc(Cl)c2n1C(c1ccccc1)c1ccccc1
IC50 [1]: 10 µM | IC50 [2]: 6 µM

Cc1c(CCOC(=O)Nc2ccc(C(=O)O)cc2)c2cc(Cl)ccc2n1C(c1ccccc1)c1ccccc1
IC50 [1]: 13 µM | IC50 [2]: 38 µM

O=C(O)c1ccc(OCC(O)COc2ccc(SCCCCCc3ccccc3)cc2)cc1 (centres undefined)
IC50 [1]: > 100 µM | IC50 [2]: 340 µM

COc1cc(C(=O)O)ccc1Cc1cn(C(c2ccccc2)c2ccccc2)c2cc(Cl)ccc12
IC50 [3]: 1.5 µM | IC50 [4]: 0.8 µM | IC50 [1]: > 400 µM | IC50 [2]: 160 µM | IC50 [5]: 8.3 µM

Cc1c(CCOc2ccc(C(=O)O)cc2Cl)c2cc(Cl)ccc2n1C(c1ccccc1)c1ccccc1
IC50 [1]: 25 µM | IC50 [2]: 11 µM

Cc1c(CCOc2ccc(CC(=O)O)cc2)c2cc(Cl)ccc2n1C(c1ccccc1)c1ccccc1
IC50 [1]: 48 µM | IC50 [2]: > 10 µM

Cc1c(CCOc2ccc(CCCC(=O)O)cc2)c2cc(Cl)ccc2n1C(c1ccccc1)c1ccccc1
IC50 [1]: 50 µM | IC50 [2]: 20 µM

Cc1c(CCSc2ccc(C(=O)O)cc2)c2cc(Cl)ccc2n1C(c1ccccc1)c1ccccc1
IC50 [1]: 10 µM | IC50 [2]: 2 µM

Cc1c(CCCc2ccc(C(=O)O)cc2)c2cc(Cl)ccc2n1C(c1ccccc1)c1ccccc1
IC50 [2]: 2 µM

O=C(COc1ccc(SCCCCCc2ccccc2)cc1)COc1ccc(C(=O)O)cc1
IC50 [3]: 1.5 µM | IC50 [1]: 12 µM | IC50 [2]: 0.04 µM

Cc1c(CC(=O)O)c2cc(Cl)ccc2n1C(c1ccccc1)c1ccccc1
IC50 [1]: < 100 µM | IC50 [2]: 165 µM

Cc1c(CCS(=O)(=O)c2ccc(C(=O)O)cc2)c2c(Cl)c(Cl)ccc2n1C(c1ccccc1)c1ccccc1
IC50 [1]: 4 µM | IC50 [2]: 1 µM

O=C(O)c1ccc(OCCc2cn(C(c3ccccc3)c3ccccc3)c3ccc(Cl)cc23)cc1
IC50 [1]: 14 µM | IC50 [2]: 5 µM

COC(=O)c1ccc(OCCc2c(C(C)(C)C)n(C(c3ccccc3)c3ccccc3)c3ccc(Cl)cc23)cc1
IC50 [1]: > 25 µM | IC50 [2]: 20 µM

Cc1c(CCOc2ccc(C(=O)O)cc2)c2cc([N+](=O)[O-])ccc2n1C(c1ccccc1)c1ccccc1
IC50 [1]: 8 µM | IC50 [2]: 5 µM

Cc1c(CCOc2ccc(C(=O)O)cc2)c2cc(Br)ccc2n1C(c1ccccc1)c1ccccc1
IC50 [1]: 3 µM | IC50 [2]: 2 µM

O=C(O)c1ccc(OCC(O)Cc2cn(C(c3ccccc3)c3ccccc3)c3cc(Cl)ccc23)cc1 (centres undefined)
IC50 [1]: 100 µM | IC50 [2]: 40 µM

Cc1c(CCNc2ccc(C(=O)O)cc2)c2cc(Cl)ccc2n1C(c1ccccc1)c1ccccc1
IC50 [1]: > 25 µM | IC50 [2]: 23 µM

O=C(O)c1ccc(OCCc2c(-c3ccccc3)n(C(c3ccccc3)c3ccccc3)c3ccc(Cl)cc23)cc1
IC50 [1]: > 50 µM | IC50 [2]: > 50 µM

Cc1c(CCOc2ccc(C(=O)O)cc2)c2cc(-c3ccccc3)ccc2n1C(c1ccccc1)c1ccccc1
IC50 [1]: 9 µM | IC50 [2]: 33 µM

Cc1c(CCOc2ccc(C(=O)O)c(F)c2)c2cc(Cl)ccc2n1C(c1ccccc1)c1ccccc1
IC50 [1]: 8 µM | IC50 [2]: 2 µM

Cc1c(CCCCOc2ccc(C(=O)O)cc2)c2cc(Cl)ccc2n1C(c1ccccc1)c1ccccc1
IC50 [1]: 9 µM | IC50 [2]: 2 µM

Cc1c(CCS(=O)(=O)c2ccc(C(=O)O)cc2)c2cc(Cl)ccc2n1C(c1ccccc1)c1ccccc1
IC50 [6]: 6.3 µM | inhibition at 0.5 µM [7]: 82% | IC50 [8]: 8.4 µM | IC50 [1]: 2 µM | IC50 [2]: 0.8 µM | inhibition at 0.5 µM [9]: 72% | inhibition at 0.5 µM [10]: 8% | bioavailability [11]: 39% | clearance [12]: 44 mL/min/kg

Cc1c(CCOc2ccc(C(=O)O)cn2)c2cc(Cl)ccc2n1C(c1ccccc1)c1ccccc1
IC50 [13]: Not Active | IC50 [2]: 85 µM

COc1c(Cc2cn(C(c3ccccc3)c3ccccc3)c3cc(Cl)ccc23)cccc1C(=O)O
IC50 [2]: 120 µM

Cc1c(CCOc2cccc(C(=O)O)c2)c2cc(Cl)ccc2n1C(c1ccccc1)c1ccccc1
IC50 [1]: > 50 µM | IC50 [2]: 120 µM

Cc1c(CCS(=O)(=O)c2ccc(C(=O)O)cc2)c2c(Cl)cccc2n1C(c1ccccc1)c1ccccc1
IC50 [1]: 12 µM | IC50 [2]: 2 µM

COc1ccc2c(c1)c(CCS(=O)(=O)c1ccc(C(=O)O)cc1)c(C)n2C(c1ccccc1)c1ccccc1
IC50 [1]: 7 µM | IC50 [2]: 3 µM

Cc1c(CCOc2ccc(CCC(=O)O)cc2)c2cc(Cl)ccc2n1C(c1ccccc1)c1ccccc1
IC50 [1]: 2 µM | IC50 [2]: 3 µM

Cc1c(CC[S+]([O-])c2ccc(C(=O)O)cc2)c2cc(Cl)ccc2n1C(c1ccccc1)c1ccccc1 (centres undefined)
IC50 [1]: 3 µM | IC50 [2]: 1 µM

Cc1c(CCS(=O)(=O)c2ccc(C(=O)O)cc2)c2ccccc2n1C(c1ccccc1)c1ccccc1
IC50 [1]: 6 µM | IC50 [2]: 2 µM

Cc1c(CCOc2ccc(C(=O)O)cc2)c2cc(Cl)ccc2n1C(c1ccccc1)c1ccccc1
IC50 [6]: 30 µM | IC50 [8]: 34 µM | IC50 [1]: 7 µM | inhibition at 1.5 µM [14]: 81% | IC50 [2]: 3 µM | inhibition at 1.5 µM [15]: -8% | inhibition at 1.5 µM [16]: 96% | bioavailability [11]: 2.6% | clearance [12]: 3.2 mL/min/kg

Cc1c(CCS(=O)(=O)c2ccc(C(=O)O)cc2)c2cc(F)ccc2n1C(c1ccccc1)c1ccccc1
IC50 [1]: 5 µM | IC50 [2]: 1 µM

O=C(O)c1cccc(CC(O)Cc2cn(C(c3ccccc3)c3ccccc3)c3cc(Cl)ccc23)c1 (centres undefined)
IC50 [2]: 90 µM

Cc1c(CCOc2ccc(C(=O)O)cc2)c2cc(N)ccc2n1C(c1ccccc1)c1ccccc1
inhibition (Rattus norvegicus): inactive | IC50 [2]: 8 µM

Cc1c(CCS(=O)(=O)c2ccc(C(=O)O)cc2)c2cc(Cl)c(Cl)cc2n1C(c1ccccc1)c1ccccc1
IC50 [1]: 2 µM | IC50 [2]: 3 µM

Cc1c(CCOc2ccc(C(=O)O)cc2)c2cc(N3CCOCC3)ccc2n1C(c1ccccc1)c1ccccc1
IC50 [1]: > 10 µM | IC50 [2]: 22 µM

Cc1c(CCS(=O)(=O)c2ccc(CCC(=O)O)cc2)c2cc(Cl)ccc2n1C(c1ccccc1)c1ccccc1
IC50 [6]: 0.9 µM | inhibition at 0.5 µM [7]: 100% | IC50 [8]: 1.4 µM | IC50 [1]: 0.8 µM | IC50 [2]: 0.5 µM | inhibition at 0.5 µM [9]: 100% | inhibition at 0.5 µM [10]: 2% | bioavailability [11]: 11% | clearance [12]: 47 mL/min/kg

Cc1c(CCOc2ccc(C(=O)O)c(Cl)c2)c2cc(Cl)ccc2n1C(c1ccccc1)c1ccccc1
IC50 [1]: 25 µM | IC50 [2]: 7 µM

Cc1c(CCS(=O)(=O)c2ccc(C(=O)O)cc2)c2ccc(Cl)cc2n1C(c1ccccc1)c1ccccc1
IC50 [1]: 5 µM | IC50 [2]: 4 µM

Cc1c(C(=O)C(=O)Nc2ccc(C(=O)O)cc2)c2cc(Cl)ccc2n1C(c1ccccc1)c1ccccc1
IC50 [1]: 25 µM | IC50 [2]: 26 µM
